Data: ChEMBL document CHEMBL5058564, “EUbOPEN Chemogenomics Library 2 (Incucyte)” (2022)

Assays:
Format in all cases: toxicity, cell-based
HEK-293T = assay: Incucyte cell viability with HEK293T; conditions: human, 10 µM, compound concentration 10 uM
U2OS = assay: Incucyte cell viability with U2OS; conditions: human, 10 µM, compound concentration 10 uM
Fibroblast = assay: Incucyte cell viability with human fibroblast; conditions: 10 µM, compound concentration 10 uM
[1] = 0 h, replicate number 1, timepoint 0 hours
[2] = 0 h, replicate number 2, timepoint 0 hours
[3] = 6 h, replicate number 1, timepoint 6 hours
[4] = 12 h, replicate number 2, timepoint 12 hours
[5] = 18 h, replicate number 1, timepoint 18 hours
[6] = 24 h, replicate number 1, timepoint 24 hours
[7] = 24 h, replicate number 2, timepoint 24 hours
[8] = 12 h, replicate number 1, timepoint 12 hours
[9] = 18 h, replicate number 2, timepoint 18 hours
[10] = 6 h, replicate number 2, timepoint 6 hours
Note: unitless GR value; below 1 slowed growth and below 0 cell loss.

Compound | Growth Rate (HEK-293T; [1]) | Growth Rate (HEK-293T; [2]) | Growth Rate (HEK-293T; [3]) | Growth Rate (HEK-293T; [4]) | Growth Rate (HEK-293T; [5]) | Growth Rate (HEK-293T; [6]) | Growth Rate (HEK-293T; [7]) | Growth Rate (U2OS; [4]) | Growth Rate (U2OS; [9]) | Growth Rate (Fibroblast; [1]) | Growth Rate (Fibroblast; [2]) | Growth Rate (Fibroblast; [10]) | Growth Rate (Fibroblast; [8]) | Growth Rate (Fibroblast; [4]) | Growth Rate (Fibroblast; [6]) | Growth Rate (HEK-293T; [8]) | Growth Rate (U2OS; [3]) | Growth Rate (U2OS; [7]) | Growth Rate (HEK-293T; [9]) | Growth Rate (U2OS; [1]) | further results
CSCC[C@H](NC(=O)[C@H](CC(C)C)NC(=O)CNC(=O)[C@H](Cc1ccccc1)N(C)C(=O)[C@H](Cc1ccccc1)NC(=O)[C@H](CC(=O)O)NC(=O)CCC(=O)O)C(N)=O [SENKTIDE] | 0.75 | -0.03 | 0.83 | 0.93 | 0.92 | 0.84 | 0.88 | 0.98 | 0.91 | 0.34 | 0.41 | 0.25 | 0.98 | 0.87 | 0.9 |  |  |  |  |  | Growth Rate (U2OS; [8]): 0.94
CO[C@H]1CC[C@@H](C(=O)c2ccc3nc4c(cc3c2)CCCO4)CC1 |  |  | 0.72 |  | 0.59 | 0.73 |  | 0.67 | 0.74 | 0.96 |  | 0.07 |  | 0.87 | 0.48 | 0.84 | -0.12 | 0.78 |  |  | Growth Rate (U2OS; [10]): 0.55; Growth Rate (U2OS; [8]): 0.27; Growth Rate (U2OS; [5]): 0.36; Growth Rate (U2OS; [6]): 0.74; Growth Rate (Fibroblast; [5]): 0.79
COC(=O)N1CCN(C(=O)Cc2ccc(Cl)c(Cl)c2)C(CN2CCCC2)C1.O=C(O)/C=C/C(=O)O (stereo not drawn) | 1 |  |  | 0.72 |  |  |  | 0.54 | 0.75 |  | 0.83 | 0.71 |  |  |  |  | 0.36 | 0.76 |  |  | Growth Rate (U2OS; [10]): 0.4; Growth Rate (U2OS; [8]): 0.75
Nc1nc(Nc2ccccc2)nc2c1ncn2[C@@H]1O[C@H](CO)[C@@H](O)[C@H]1O | 0.49 | -0.14 | 0.52 | 0.63 | 0.76 | 0.85 | 0.9 |  | 0.91 | 0.77 | 0.2 |  | 0.83 | 0.96 | 0.93 | 0.7 | 0.95 |  | 0.95 | 0.4 | Growth Rate (HEK-293T; [10]): 0.76; Growth Rate (U2OS; [8]): 0.84; Growth Rate (U2OS; [6]): 0.93
CC(C)n1cc(-c2ccc(N3CCN(C)CC3)c(NC(=O)c3ccc(-c4ccncc4)o3)c2)cn1 |  |  | -0.29 | -0.04 | -0.16 | 0.11 | 0.64 |  |  |  | 0.57 | 0.39 | 0.05 | 0.57 | 0.03 | -0.21 | -0.04 |  | 0.34 | 0.32 | Growth Rate (HEK-293T; [10]): -0.21; Growth Rate (U2OS; [2]): -1; Growth Rate (U2OS; [8]): 0.36; Growth Rate (U2OS; [5]): 0.95; Growth Rate (Fibroblast; [3]): -0.14; Growth Rate (Fibroblast; [5]): -0.06; Growth Rate (Fibroblast; [9]): 0.81; Growth Rate (Fibroblast; [7]): 0.94
COc1cc(C(=O)N(CCCc2ccccc2)Cc2ccc(CC(=O)O)cc2)cc(OC)c1C | 0.55 | 0.84 |  |  |  |  |  | 0.94 | 0.97 | -0.55 | 0.01 |  |  |  |  |  |  | 0.96 |  | -0.86 | Growth Rate (U2OS; [10]): 0.79
O=C(N[C@@H]1CC[C@@H](c2cccc(F)c2F)CN(CC(F)(F)F)C1=O)N1CCC(n2c(=O)[nH]c3ncccc32)CC1 [TELCAGEPANT] |  |  | 0.32 | 0.94 | 0.54 | 0.81 |  |  | 0.98 |  | 0.95 | -0.28 | 0.01 | 0.39 | 0.22 | 0.66 | 0.8 | 0.95 | 0.98 |  | Growth Rate (HEK-293T; [10]): 0.77; Growth Rate (U2OS; [2]): -1; Growth Rate (U2OS; [6]): 0.86; Growth Rate (Fibroblast; [3]): 0.18; Growth Rate (Fibroblast; [5]): 0.11; Growth Rate (Fibroblast; [9]): 0.66; Growth Rate (Fibroblast; [7]): 0.72
CC(=O)c1cc(-c2ccccc2OCC2CC2)c2ncccn12 | 0.61 |  |  |  | 0.98 |  |  |  |  |  | 0.39 | 0.72 |  | 0.88 |  |  | 0.45 |  |  | 0.8 | Growth Rate (U2OS; [2]): 0.26; Growth Rate (U2OS; [10]): 0.99; Growth Rate (U2OS; [5]): 0.98; Growth Rate (U2OS; [6]): 0.98
CC(C)C[C@@H](NC(=O)[C@H](Cc1ccccc1)NC(=O)CNC(=O)[C@@H](C)NC(=O)[C@@H](N)Cc1ccc(O)cc1)C(=O)O [DADLE] | 0.71 | 0.5 | 0.4 |  | 0.72 | 0.8 | 0.91 | 0.93 | 0.98 | 0.72 | -0.04 |  | 0.89 |  |  | 0.61 |  | 0.99 | 1 |  | Growth Rate (U2OS; [2]): 0.25; Growth Rate (U2OS; [10]): 0.82
Cc1ccc(F)cc1C(=O)Nc1ccc(C(=O)N2Cc3cccn3Cc3ccccc32)c(Cl)c1 [LIXIVAPTAN] | 0.91 |  |  |  |  |  |  |  | 0.89 | -0.13 |  | 0.2 |  | 0.59 | 0.45 |  | 0.32 | 0.94 |  | -0.09 | Growth Rate (U2OS; [10]): 0.89; Growth Rate (U2OS; [6]): 0.9; Growth Rate (Fibroblast; [3]): 0.63; Growth Rate (Fibroblast; [9]): 0.75
Cl.NCCc1ccc(O)c(O)c1 [DOPAMINE HYDROCHLORIDE] | 0.96 |  | 0.72 |  |  |  |  |  |  | 0.12 | 0.55 | 0.26 |  | 0.67 |  | 0.97 | 0.57 |  |  | 0.15 | Growth Rate (U2OS; [8]): 0.79; Growth Rate (U2OS; [5]): 0.8; Growth Rate (U2OS; [6]): 0.95; Growth Rate (Fibroblast; [9]): 0.95
NC(N)=Nc1nc(CSCCC(N)=NS(N)(=O)=O)cs1 [FAMOTIDINE] |  |  | 0.72 |  |  | 0.96 |  |  |  | 0.55 | 0.42 | 0.22 | 0.41 | 0.17 |  | 0.65 | 0.18 |  | 0.89 |  | Growth Rate (HEK-293T; [10]): 0.45; Growth Rate (U2OS; [2]): -1; Growth Rate (Fibroblast; [9]): 0.4; Growth Rate (Fibroblast; [7]): 0.89
CCCN[C@H]1CCc2nc(N)sc2C1.Cl.Cl | 0.73 | 0.77 |  | 0.53 | 0.97 | 0.93 | 0.81 | 0.97 | 0.92 |  | -0.13 | 0.73 | 0.31 | 0.7 |  | 0.99 |  |  | 0.77 |  | Growth Rate (HEK-293T; [10]): 0.07; Growth Rate (U2OS; [2]): 0.18; Growth Rate (Fibroblast; [3]): -0.38; Growth Rate (Fibroblast; [5]): 0.84
CN1C[C@H](C(=O)N[C@]2(C)O[C@@]3(O)[C@@H]4CCCN4C(=O)[C@H](Cc4ccccc4)N3C2=O)C[C@@H]2c3cccc4[nH]cc(c34)C[C@H]21.CS(=O)(=O)O [DIHYDROERGOTAMINE MESYLATE] | -0.57 | -0.38 |  |  | 0.98 |  |  |  |  | -0.33 | -0.55 |  |  |  |  | 0.96 | 0.44 |  |  | 0.01 | Growth Rate (U2OS; [5]): 0.95
CCOC(=O)N[C@@H]1CC[C@@H]2[C@@H](C1)C[C@H]1C(=O)O[C@H](C)[C@H]1[C@H]2/C=C/c1ccc(-c2cccc(F)c2)cn1 [VORAPAXAR] |  |  | 0.72 | 0.85 | 0.48 | 0.45 | 0.95 | 0.96 | 0.88 |  |  | -0.65 | -0.08 | -0.18 | 0.18 | 0.42 |  | 0.9 | 0.87 | -0.64 | Growth Rate (Fibroblast; [3]): 0.13; Growth Rate (Fibroblast; [5]): -0.15; Growth Rate (Fibroblast; [9]): -0.11; Growth Rate (Fibroblast; [7]): 0.15
